Some results are limits rather than exact numbers.

The melting point is the temperature, or range, at which the solid turns liquid. `NS(=O)(=O)c1ccc(-c2c(-c3ccccc3)noc2COCC(F)(F)C(F)(F)CO[N+](=O)[O-])cc1` gave a melting point of 46 °C.
`COC(=O)c1cc(CCc2cc(OC)ccc2OC)ccc1N` returned a melting point of 50 to 55 °C.
`COc1ccc2c(c1)C(=O)C(=Cc1c[nH]c3ccccc13)CO2` displayed a melting point of 217 to 219 °C.
The same measure for `COC1=NS(=O)(=O)N(C)C(OCCc2ccccc2)=N1`: 74 to 77 °C; for `CC(=O)OC1CSC(Oc2cccc(-c3ccc(C)o3)c2)C(OC(C)=O)C1OC(C)=O` (stereo unspecified): 132 °C; for `O=C(Nc1ccccc1)c1sc2c([N+](=O)[O-])c(O)c(O)cc2c1Cl`: 288 °C.
`CCC(=O)C1=C(O)CC(c2c(C)c(C)c(C)c(C)c2C)CC1=O` (stereo unspecified) gave a melting point of 84 °C.
The same measure for `C=C(C)C=COc1ccc(C(=O)C=Cc2ccc(OCC(=O)O)c(OC)c2)c(OCC(=O)O)c1`: over 200 °C; for `O=C1CCN(Cc2ccccc2O)CC1C(c1ccc(F)cc1)c1ccc(F)cc1` (stereo unspecified): 151 to 152 °C; for `Fc1nc2ccccc2cc1Br`: 75 to 76 °C.
Molecule `Oc1ccc(OCCn2nc3c(n2)CCCC3)cc1` returned a melting point of 93 °C.
`NS(=O)(=O)c1ccc(-c2noc(-c3cnc4c(C(F)(F)F)cc(-c5ccc(C(F)(F)F)cc5)cn34)n2)cc1` displayed a melting point of 292 °C.
The same measure for `Nc1ccccc1SSc1ccccc1N`: 88 to 89 °C.
On to `Nc1nc(SC2CCC2)c2ncn(C3C=CC(CO)C3)c2n1` (stereo unspecified), for which the melting point fell in the range of 159 to 160 °C.
The same measure for `CC(O)c1ccc2occ(C#N)c(=O)c2c1` (stereo unspecified): 147 to 148 °C; for `COc1ccc(C(=O)CC(C)C)cc1OCCCO`: 38 to 40 °C.
The same measure for `CN(C)S(=O)(=O)n1ccc2cnccc21`: 87 °C; for `O=c1[nH]c(=Cc2ccc(OCc3ccccc3)cn2)c(=O)[nH]c1=Cc1ccc([N+](=O)[O-])cc1`: over 300 °C.
The same measure for `COc1ccc2c(c1)c(SC)c(C(N)=O)n2C`: 204 to 206 °C; for `Cc1nc2cc(C(C)C(=O)O)ccc2o1` (stereo unspecified): 115 to 117 °C.
`COc1cccc(OC2COc3ccc(OCc4cc(OC)ccn4)cc3C2O)c1` (stereo unspecified): the melting point was 165 to 166 °C.
The same measure for `CCCCCCc1ccc(CCc2cc3c(s2)NC(=S)CN=C3c2ccccc2Cl)cc1`: 140 to 145 °C.
`CCOC(=O)C1=C(N)NC2=C(C(=O)CCC2)C1c1cccc(Cl)c1` (stereo unspecified) showed a melting point of 266 °C.
Molecule `Cc1cc(CC#N)c(CC#N)cc1C` showed a melting point of 103 to 104 °C.
The same measure for `Cc1cc2c(cc1CSCC(=O)O)OCO2`: 90 to 92 °C.
The same measure for `CCOCc1nc2c(N)nc3cc(OCCCN4CCCC4=O)ccc3c2n1CCCCN1CCCS1(=O)=O`: 142 to 144 °C; for `CC(=O)OC1OC(CF)C(OC(C)=O)C1OC(C)=O` (stereo unspecified): 98 to 101 °C; for `COc1cc2cc(/C=C/c3ccccc3)[nH]c2cc1OCc1ccccc1`: 140 to 145 °C.
The same measure for `COc1ccc(-c2nc(CNC(C)(C)C)nc3cc(OC)c(OC)cc23)cc1OC`: 120 to 122 °C; for `CONC(=N)c1ccc(-c2ccc(-c3ccc(C(=N)NOC)o3)cc2)cc1`: 194 to 196 °C; for `O=C(O)C1=Cc2cc(F)c(F)cc2NC1C(F)(F)F` (stereo unspecified): 187 to 189 °C.
Molecule `O=C(O)c1cnc2ccc(-c3ccc(Cl)cc3)cn12` displayed a melting point of 206 °C.
In turn, `CN(C)c1ccc2sccc2c1` came in with a melting point of 52 to 54 °C.
The same measure for `CCCCOC(=O)C(NC(=O)OCC(Cl)(Cl)Cl)n1cnc2ncncc21` (stereo unspecified): 114 to 116 °C.
Molecule `CC1(C)CC1C(=O)Nc1ccc(C2=NNC(=O)CC2)cc1` (stereo unspecified) returned a melting point of 213 to 214 °C.
The molecule `COC(=O)C(Br)c1nsc2ccc(-n3c(=O)cc(C(F)(F)F)n(C)c3=O)cc12` (stereo unspecified) came in with a melting point of 84 to 87 °C.

Values taken from a melting point compilation (Tetko et al.; mined from patent text by program, amines drawn as free bases though some values may be those of a salt).
